Measured values taken from patent US20220380341A1, “INHIBITORS OF HIV-1 NEF FOR THE TREATMENT OF HIV DISEASE” (priority 2018, published 2022).
pKd: −log10 of the molar value. Like-named read-outs stand apart in the source and are kept apart here.

Biological target: HIV-1 NefNL4-3 (Human immunodeficiency virus type 1 group M subtype B, UniProt P03406, A33V/T15A/T51N/V11I)
Experiment: Surface plasmon resonance binding to recombinant full-length Nef (NL4-3)
Conditions: for Nef NL4-3 Binding, SPR 1:1 or 2-site fitting KD1: 1:1 Langmuir fit where the KD2 cell says '1 to 1 fitting', else 2-site fit
[1] = Nef NL4-3 Binding, SPR 1:1 or 2-site fitting KD2, Table 1, 2-site fit, second component
[2] = read-out: Nef NL4-3 Binding, SPR 1:1 or 2-site fitting KD2, Table 1, 2-site fit, second component

## Oc1c(CCc2ccc(F)cc2)c(-c2cnccn2)nn1-c1nc2ccccc2[nH]1 [Compound I-103, 1-(1H-1,3-benzodiazol-2-yl)-4-[2-(4-fluorophenyl)ethyl]-3-(pyrazin-2-yl)-1H-pyrazol-5-ol]
[1]
  pKd: 4.60

## Cc1ccc(-c2nn(-c3nc4ccccc4[nH]3)c(O)c2CCc2ccc(F)cc2)cc1 [Compound I-104, 1-(1H-1,3-benzodiazol-2-yl)-4-[2-(4-fluorophenyl)ethyl]-3-(4-methylphenyl)-1H-pyrazol-5-ol]
  pKd: 5.63
[1]
  pKd: 5.65

## Oc1c(CCc2ccc(F)cc2)c(-c2ccccn2)nn1-c1nc2ccccc2[nH]1 [Compound I-109, 1-(1H-1,3-benzodiazol-2-yl)-4-[2-(4-fluorophenyl)ethyl]-3-(pyridin-2-yl)-1H-pyrazol-5-ol]
  pKd: 7.44

## Oc1c(CCc2ccc(F)c(F)c2)c(-c2cnccn2)nn1-c1nc2ccccc2[nH]1 [Compound I-111, 1-(1H-1,3-benzodiazol-2-yl)-4-[2-(3,4-difluorophenyl)ethyl]-3-(pyrazin-2-yl)-1H-pyrazol-5-ol]
Table 1
  Nef NL4-3 Binding, SPR 1:1 or 2-site fitting KD1: No Interaction

## Oc1c(CCc2ccc(F)c(Cl)c2)c(-c2cnccn2)nn1-c1nc2ccccc2[nH]1 [Compound I-112, 1-(1H-1,3-benzodiazol-2-yl)-4-[2-(3-chloro-4-fluorophenyl)ethyl]-3-(pyrazin-2-yl)-1H-pyrazol-5-ol]
Table 1
  Nef NL4-3 Binding, SPR 1:1 or 2-site fitting KD1: No Interaction

## Oc1c(CCc2ccc(F)cc2)c(-c2ccncc2)nn1-c1nc2ccccc2[nH]1 [Compound I-113, 1-(1H-1,3-benzodiazol-2-yl)-4-[2-(4-fluorophenyl)ethyl]-3-(pyridin-4-yl)-1H-pyrazol-5-ol]
  pKd: 5.47

## C=CCc1c(-c2ccc(C(F)(F)F)cc2)nn(-c2nc3ccccc3[nH]2)c1O [Compound I-115, 1-(1H-1,3-benzodiazol-2-yl)-4-(prop-2-en-1-yl)-3-[4-(trifluoromethyl)phenyl]-1H-pyrazol-5-ol]
  pKd: 6.16
[2]
  pKd: 5.24

## Oc1c(CCc2ccc(F)cc2)c(-c2cccc(Cl)c2)nn1-c1nc2ccccc2[nH]1 [Compound I-116, 1-(1H-1,3-benzodiazol-2-yl)-3-(3-chlorophenyl)-4-[2-(4-fluorophenyl)ethyl]-1H-pyrazol-5-ol]
  pKd: 5.70

## Oc1c(CCc2ccc(F)cc2)c(-c2ccccc2Cl)nn1-c1nc2ccccc2[nH]1 [Compound I-117, 1-(1H-1,3-benzodiazol-2-yl)-3-(2-chlorophenyl)-4-[2-(4-fluorophenyl)ethyl]-1H-pyrazol-5-ol]
  pKd: 5.77
[2]
  pKd: 4.61

## O=C(OCc1ccccc1)N1CCC(c2nn(-c3nc4ccccc4[nH]3)c(O)c2Cc2ccc(F)c(F)c2)CC1 [Compound I-159, benzyl 4-[1-(1H-1,3-benzodiazol-2-yl)-4-[(3,4-difluorophenyl)methyl]-5-hydroxy-1H-pyrazol-3-yl]piperidine-1-carboxylate]
  pKd: 6.42

## CC(C)(C)OC(=O)N1CCC(c2nn(-c3nc4ccccc4[nH]3)c(O)c2Cc2ccc(F)c(F)c2)CC1 [Compound I-203, tert-butyl 4-[1-(1H-1,3-benzodiazol-2-yl)-4-[(3,4-difluorophenyl)methyl]-5-hydroxy-1H-pyrazol-3-yl]piperidine-1-carboxylate]
  pKd: 6.09
[2]
  pKd: 4.34

## Oc1c(CCc2ccc(F)cc2)c(C2CCCNC2)nn1-c1nc2ccccc2[nH]1 (stereo not drawn) [Compound I-502, 1-(1H-1,3-benzodiazol-2-yl)-4-[2-(4-fluorophenyl)ethyl]-3-(piperidin-3-yl)-1H-pyrazol-5-ol]
Table 1, 2-step induced-fit model, read-out: Nef NL4-3 Binding, SPR 2-state fitting KD
  pKd: 5.35
read-out: Nef NL4-3 Binding, SPR 1:1 or 2-site fitting KD1
  pKd: 5.61

## Oc1c(CCc2ccc(F)cc2)c(C2CCNCC2)nn1-c1nc2ccccc2[nH]1 [Compound I-551, 1-(1H-1,3-benzodiazol-2-yl)-4-[2-(4-fluorophenyl)ethyl]-3-(piperidin-4-yl)-1H-pyrazol-5-ol]
Table 1
  Nef NL4-3 Binding, SPR 1:1 or 2-site fitting KD1: No Interaction
